Data set [1] in a line: In vivo pharmacokinetic test in mice. To be noted: single dose 30 mg/kg, plasma. As for the experimental part:
Each test compound was administered orally once to female BALB/c mice for pharmacokinetic study. The test compounds were prepared on the day of administration. The oral administration solvent: 50 mM sodium citrate (pH 5.0) + 10% captisol. The oral administration was conducted in a dose of 30 mg/kg. The animals were fasted for 10-14 h before oral administration, and the feeding was resumed 4 h after administration. Pharmacokinetic samples were collected through the orbit. The collection time points were: 15 min, 30 min, 1 h, 2 h, 4 h, 6 h, 8 h and 24 h after administration. Three whole blood samples were collected at each time point, with a collection volume of about 0.2 mL, and anticoagulated with sodium heparin. After blood samples were collected, they were immediately placed on ice and centrifuged within 1 h to isolate plasma (centrifugation conditions: 8000 rpm, 1 min, 2-8°C). The collected plasma was stored in a -20°C refrigerator before analysis. The concentrations of compounds in the plasma samples were determined using an LC-MS/MS analysis method.

The subject of data set [2] is KRAS G12D-mediated ERK phosphorylation. Description: Inhibition of KRAS G12D-mediated ERK phosphorylation in AGS cells (in-cell pERK/GAPDH immunofluorescence). It counts as cell-based. As for the experimental part:
(§1) Day 1: AGS cells, SW480 cells, NCI H358 cells, HCT116 cells, and KP2 cells were seeded into 384-well cell culture plates and cultured overnight in a 37°C, 5% CO2 incubator.
(§2) Day 2: The compounds were added to the plates using Echo550 and incubated for 3 h in a 37°C, 5% CO2 incubator. Then, cells fixed with paraformaldehyde, permeated with methanol and blocked with a blocking solution were added. Finally, a mixed solution of primary antibodies (rabbit anti pERK, mouse anti GAPDH) was added, and the mixture was incubated overnight at 4°C.
(§3) Day 3: The mixed solution of primary antibodies was discarded, and a mixed solution of secondary antibodies (goat anti rabbit 800 CW, goat anti mouse 680 RD) was added. The resulting mixture was incubated at room temperature in the dark. Finally, the cell culture plate was washed with PBST, and then inverted for 1 minute of centrifugation. The fluorescence signal values were read with Odyssey CLx.
(§4) ERK phosphorylation was calculated according to the following formula: [formula] • Negative control: DMSO • Positive control: 10 µM Reference • IC50 value was fitted and calculated by XLFit 5.0 using the parametric formula. • Y = Bottom+(Top-Bottom)/(1+10^((LogIC50-X)*HillSlope)) • X: log value of compound concentration. • Y: average value of relative expression of p-ERK between replicate wells.

For data set [3], the system named is KRAS G12V-mediated ERK phosphorylation. As to the kind of experiment: Inhibition of KRAS G12V-mediated ERK phosphorylation in SW480 cells. The conditions noted are these: 3 h incubation, read-out: Inhibitory activity on ERK phosphorylation (IC50) SW480-G12V. It is filed as cell-based. How it is done:
as §1, §2, §3, §4

In data set [4] the test system is KRAS G12R-mediated ERK phosphorylation. Description: Inhibition of KRAS G12R-mediated ERK phosphorylation in KP2 cells. It counts as cell-based. The conditions noted are these: 3 h incubation, read-out: Inhibitory activity on ERK phosphorylation (IC50) KP2-G12R. As for the experimental part:
as §1, §2, §3, §4

Data set [5] deals with KRAS G13D-mediated ERK phosphorylation. As to the kind of experiment: Inhibition of KRAS G13D-mediated ERK phosphorylation in HCT116 cells. It counts as cell-based. The conditions noted are these: Homo sapiens, HCT-116, 3 h incubation, read-out: Inhibitory activity on ERK phosphorylation (IC50) HCT116-G13D. As for the experimental part: as §1, §2, §3, §4
For data set [6], the system named is KRAS G12C-mediated ERK phosphorylation. Description: Inhibition of KRAS G12C-mediated ERK phosphorylation in NCI H358 cells. It is filed as cell-based. The conditions noted are these: Homo sapiens, 3 h incubation, read-out: Inhibitory activity on ERK phosphorylation (IC50) NCI H358-G12C. How it is done: as §1, §2, §3, §4
Setting [7] is: mouse, female BALB/c mice, oral, read-out: AUC.
The mark [8] stands for this setting: mouse, female BALB/c mice, oral, read-out: Cmax.
Where [9] appears, read: Homo sapiens, AGS, 3 h, AGS cells, 3 h incubation, read-out: Inhibitory activity on ERK phosphorylation (IC50) AGS-G12D.
The mark [10] stands for this setting: female BALB/c mice, oral, 30 mg/kg.
[11] abbreviates: AGS cells, 3 h incubation, read-out: Inhibitory activity on ERK phosphorylation (IC50) AGS-G12D.
[12] abbreviates: Homo sapiens, AGS, 3 h, read-out: Inhibitory activity on ERK phosphorylation (IC50) AGS-G12D, AGS cells, 3 h incubation.

Each structure is given as a SMILES string. Where two headings read alike, the source gives them in different places.

For the compound `N#Cc1c(N)sc2c(F)ccc(-c3c(Cl)cc4c(N5CCOCC5)nc(OC[C@@]56CCCN5[C@H](c5cc(F)c(F)c(F)c5)CC6)nc4c3F)c12` (relative stereo) [Example 17], the AUC (commonly the area under the concentration-time curve, a measure of exposure) in data set [1] (setting [7]) stood at 3990 ng·h/mL. In addition, the Cmax (as a rule, the maximum level reached in the sampled fluid or tissue) in data set [1] (setting [8]) was 1490 ng/mL. Also, in data set [2] (Homo sapiens, AGS cells, 3 h incubation, read-out: Inhibitory activity on ERK phosphorylation (IC50) AGS-G12D), the IC50 – broadly, the midpoint of a concentration-inhibition curve – came out at 41 nM.

As for `CC1(O)COCCN(c2nc(OCC34CCCN3C(c3cc(F)c(F)c(F)c3)CC4)nc3c(F)c(-c4ccc(F)c5sc(N)c(C#N)c45)c(Cl)cc23)C1` (single isomer, unassigned) [Example 10, 2-amino-4-[6-chloro-8-fluoro-4-(6-hydroxy-6-methyl-1,4-oxazepan-4-yl)-2-({[3-(3,4,5-trifluorophenyl)-2,3,5,6,7,7a-hexahydro-1H-pyrrolizin-7a-yl]methyl}oxy)quinazolin-7-yl]-7-fluorobenzo[b]thiophene-3-carbonitrile], in data set [3], the IC50 is over 1000 nM.

`CC1(O)COCCN(c2nc(OCC34CCCN3C(c3cc(F)c(F)c(F)c3)CC4)nc3c(F)c(-c4cccc5sc(N)c(C#N)c45)c(Br)cc23)C1` (centres unmarked) [Example 23, 2-amino-4-[6-bromo-8-fluoro-4-(6-hydroxy-6-methyl-1,4-oxazepan-4-yl)-2-({[3-(3,4,5-trifluoropheny 1)-2,3,5,6,7,7a-hexahydro-1H-pyrrolizin-7a-yl]methyl}oxy)quinazolin-7-yl]benzo[b]thiophene-3-carb onitrile]: the AUC in data set [1] (setting [7]) is 9230 ng·h/mL. For the same compound, the Cmax in data set [1] (setting [8]) was 3620 ng/mL. The IC50 stood at 663 nM in data set [4], 94 nM in data set [5], 4.9 nM in data set [6] and 4.2 nM in data set [2] (setting [9]).

In the case of `CC1(O)COCCN(c2nc(OCC34CCCN3C(c3cc(F)c(F)c(F)c3)CC4)nc3c(F)c(-c4ccc(F)c5sc(N)c(C#N)c45)c(Cl)cc23)C1` (single isomer, unassigned) [Example 11, 2-amino-4-[6-chloro-8-fluoro-4-(6-hydroxy-6-methyl-1,4-oxazepan-4-yl)-2-({[3-(3,4,5-trifluorophenyl)-2,3,5,6,7,7a-hexahydro-1H-pyrrolizin-7a-yl]methyl}oxy)quinazolin-7-yl]-7-fluorobenzo[b]thiophene-3-carbonitrile], the IC50 in data set [3] is over 1000 nM.

With `CC1(O)COCCN(c2nc(OCC34CCCN3C(c3cc(F)c(F)c(F)c3)CC4)nc3c(F)c(-c4ccc(F)c5sc(N)c(C#N)c45)c(Cl)cc23)C1` (single isomer, unassigned) [Example 13, 2-amino-4-[6-chloro-8-fluoro-4-(6-hydroxy-6-methyl-1,4-oxazepan-4-yl)-2-({[3-(3,4,5-trifluorophenyl)-2,3,5,6,7,7a-hexahydro-1H-pyrrolizin-7a-yl]methyl}oxy)quinazolin-7-yl]-7-fluorobenzo[b]thiophene-3-carbonitrile], the IC50 in data set [3] turned out to be 16 nM.

Consider `CC1(O)COCCN(c2nc(OCC34CCCN3C(c3cc(F)c(F)c(F)c3)CC4)nc3c(F)c(-c4cccc5sc(N)c(C#N)c45)c(Cl)cc23)C1` (single isomer, unassigned) [Example 18, 2-amino-4-[6-chloro-8-fluoro-4-(6-hydroxy-6-methyl-1,4-oxazepan-4-yl)-2-({[3-(3,4,5-trifluorophenyl)-2,3,5,6,7,7a-hexahydro-1H-pyrrolizin-7a-yl]methyl}oxy)quinazolin-7-yl]benzo[b]thiophene-3-carbonitrile], for which, in data set [1] (setting [10]), the AUC was 6017 ng·h/mL and the Cmax is given as 2148 ng/mL. Also, the IC50 in data set [2] (setting [11]) worked out at 33 nM.

In data set [1] (setting [10]), `CC1(O)COCCN(c2nc(OCC34CCCN3C(c3cc(F)c(F)c(F)c3)CC4)nc3c(F)c(-c4cccc5sc(N)c(C#N)c45)c(I)cc23)C1` (single isomer, unassigned) [Example 28, 2-amino-4-[6-iodo-8-fluoro-4-(6-hydroxy-6-methyl-1,4-oxazepan-4-yl)-2-({[3-(3,4,5-trifluorophenyl)-2,3,5,6,7,7a-hexahydro-1H-pyrrolizin-7a-yl]methyl}oxy)quinazolin-7-yl]benzo[b]thiophene-3-carbonitrile] gave an AUC of 9224 ng·h/mL. Also, in data set [1] (female, BALB/c, mouse, po, 30 mg/kg, read-out: Cmax), the Cmax came to 3290 ng/mL. For the same compound, the IC50 in data set [2] (setting [11]) came out at 4.2 nM.

In the case of `CC1(O)COCCN(c2nc(OCC34CCCN3C(c3cc(F)c(F)c(F)c3)CC4)nc3c(F)c(-c4ccc(F)c5sc(N)c(C#N)c45)c(Cl)cc23)C1` (single isomer, unassigned) [Example 9, 2-amino-4-[6-chloro-8-fluoro-4-(6-hydroxy-6-methyl-1,4-oxazepan-4-yl)-2-({[3-(3,4,5-trifluorophenyl)-2,3,5,6,7,7a-hexahydro-1H-pyrrolizin-7a-yl]methyl}oxy)quinazolin-7-yl]-7-fluorobenzo[b]thiophene-3-carbonitrile], in data set [1] (setting [10]), the AUC turned out to be 5181 ng·h/mL and the Cmax stood at 1897 ng/mL. Besides, in data set [2] (setting [11]), the IC50 came to 27 nM.

As to `CC1(O)COCCN(c2nc(OCC34CCCN3C(c3cc(F)c(F)c(F)c3)CC4)nc3c(F)c(-c4cccc5sc(N)c(C#N)c45)c(I)cc23)C1` (single isomer, unassigned) [Example 32, 2-amino-4-[6-iodo-8-fluoro-4-(6-hydroxy-6-methyl-1,4-oxazepan-4-yl)-2-({[3-(3,4,5-trifluorophenyl)-2,3,5,6,7,7a-hexahydro-1H-pyrrolizin-7a-yl]methyl}oxy)quinazolin-7-yl]benzo[b]thiophene-3-carbonitrile], the IC50 in data set [2] (setting [11]) was found to be 24 nM.

On to `CC1(O)COCCN(c2nc(OCC34CCCN3C(c3cc(F)c(F)c(F)c3)CC4)nc3c(F)c(-c4cccc5sc(N)c(C#N)c45)c(P(C)(C)=O)cc23)C1` (single isomer, unassigned) [Example 33, 2-amino-4-{6-[dimethyl(oxo)-15-methylphosphino]-8-fluoro-4-(6-hydroxy-6-methyl-1,4-oxazepan-4-yl)-2-({[3-(3,4,5-trifluorophenyl)-2,3,5,6,7,7a-hexahydro-1H-pyrrolizin-7a-yl]methyl}oxy)quinazolin-7-yl}benzo[b]thiophene-3-carbonitrile], for which the IC50 in data set [2] (setting [12]) amounted to 196 nM.

In data set [2] (AGS cells, 3 h incubation), `CC1(O)COCCN(c2nc(OCC34CCCN3C(c3cc(F)c(F)c(F)c3)CC4)nc3c(F)c(-c4cccc5sc(N)c(C#N)c45)c(Br)cc23)C1` (single isomer, unassigned) [Example 24, 2-amino-4-[6-bromo-8-fluoro-4-(6-hydroxy-6-methyl-1,4-oxazepan-4-yl)-2-({[3-(3,4,5-trifluoropheny 1)-2,3,5,6,7,7a-hexahydro-1H-pyrrolizin-7a-yl]methyl}oxy)quinazolin-7-yl]benzo[b]thiophene-3-carb onitrile] had an IC50 of 106 nM.

Regarding `N#Cc1c(N)sc2c(F)ccc(-c3c(Cl)cc4c(N5CCC6(CC5)CC(O)CO6)nc(OCC56CCCN5C(c5cc(F)c(F)c(F)c5)CC6)nc4c3F)c12` (racemic) [Example 14, 8-[7-(2-amino-7-fluorobenzo[b]thiophen-4-yl)-6-chloro-8-fluoro-2-({[3-(3,4,5-trifluorophenyl)-2,3,5,6,7,7a-hexahydro-1H-pyrrolizin-7a-yl]methyl}oxy)quinazolin-4-yl]-8-aza-1-oxaspiro[4.5]de c-3-ol], the IC50 in data set [2] (setting [12]) came to 758 nM.

In the case of `N#Cc1c(N)sc2c(F)ccc(-c3c(Cl)cc4c(N5CCOCC(O)(CO)C5)nc(OCC56CCCN5C(c5cc(F)c(F)c(F)c5)CC6)nc4c3F)c12` (racemic) [Example 2, 2-amino-4-{6-chloro-8-fluoro-4-[6-hydroxy-6-(hydroxymethyl)-1,4-oxazepan-4-yl]-2-({[3-(3,4,5-trifluorophenyl)-2,3,5,6,7,7a-hexahydro-1H-pyrrolizin-7a-yl]methyl}oxy)quinazolin-7-yl}-7-flu orobenzo[b]thiophene-3-carbonitrile], the IC50 in data set [2] (setting [9]) was over 1000 nM.

For the origin of these results see EP4778933A1 (Chengdu Hyperway Pharmaceuticals Co., Ltd., priority 2023, dated 2025).
